US8501755B2, “Tetrahydropyridothienopyrimidine compounds and methods of use thereof” (Bayer Intellectual Property GmbH, priority 2006, dated 2013)

Key:
Assay type in all cases: cell-based
N87 = test: In vitro tumor cell proliferation assay (Cell Titer-Glo) in N87 cells; conditions: N87 human gastric carcinoma overexpressing HER2 and HER1; 72 hours exposure; read-out: IC50, activities in N87 cell lines
Outline: (§1)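 Viability after 72 h drug exposure at 37 °C was read as CellTiter-Glo ATP luminescence, giving IC50. Cells (2.5×10^3/well, RPMI + 10% FBS) were compound-treated one day post-seeding, 0.1% DMSO final: A431 overexpresses HER1, N87 overexpresses HER2 and HER1.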

H1975 cells = test: In vitro tumor cell proliferation assay (Cell Titer-Glo) in H1975 cells; conditions: NCI-H1975; H1975 human NSCLC expressing mutant HER1 (L858R,T790M); 72 hours exposure; read-out: IC50, activities in H 1975 cell lines
Outline: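 After 72 h compound exposure at 37° C (top 10 uM down to 64 pM, 0.1% DMSO), viability of EGFR L858R/T790M-mutant H1975 cells was read as ATP luminescence.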

A431 cells = test: In vitro tumor cell proliferation assay (Cell Titer-Glo) in A431 cells; conditions: Homo sapiens, A-431, 72 h, A431 human epidermoid carcinoma overexpressing HER1; 72 hours exposure; read-out: IC50, activities in A431 cell lines
Outline: as §1

Row | IC50 (N87) [nM] | IC50 (H1975 cells) [nM] | IC50 (A431 cells) [nM] | Structure (SMILES)
1 | < 200 | 200 to 1000 | 200 to 1000 | CCN(C)C/C=C/C(=O)N1CCc2c(sc3ncnc(Nc4ccc5c(ccn5Cc5ccccn5)c4)c23)C1 [Example 127, 7-{(2E)-4-[ethyl(methyl)amino]but-2-enoyl}-N-[l-(pyridin-ylmethyl)1H-indol-5-yl]-5,6,7,8-tetrahydropyrido [4′,3′:4,5]thieno[2,3-d]pyrimidin-4-amine]
2 | < 200 | 200 to 1000 | 200 to 1000 | CN(C/C=C/C(=O)N1CCc2c(sc3ncnc(Nc4ccc5c(cnn5Cc5ccccn5)c4)c23)C1)C(C)(C)C [Example 128, 7-{(2E)-4-[tert-butyl(methyl)amino]but-2-enoyl}-N-[1-(pyridin-2-ylmethyl)-1H-indazol-5-yl]-5,6,7,8-tetrahydropyrido [4′,3′:4,5]thieno[2,3-d]pyrimidin-4-amine]
3 | < 200 | < 200 | 200 to 1000 | CN(C/C=C/C(=O)N1CCc2c(sc3ncnc(Nc4ccc5c(ccn5Cc5ccccn5)c4)c23)C1)C(C)(C)C [Example 129]
4 | < 200 | 200 to 1000 | 200 to 1000 | O=C(C#CCCN1CCCCC1)N1CCc2c(sc3ncnc(Nc4ccc(OCc5ccccn5)c(Cl)c4)c23)C1 [Example 132, N-[3-chloro-4-(pyridin-2-ylmethoxy)phenyl]-7-(5-piperidin-1-ylpent-2-ynoyl)-5,6,7,8-tetrahydropyrido[4′,3′:4,5]-thieno[2,3-d]pyrimidin-4-amine]
5 | < 200 | 200 to 1000 | 200 to 1000 | C#Cc1cccc(Nc2ncnc3sc4c(c23)CCN(C(=O)C#CCN(C)C)C4)c1 [Example 133, 7-[4-(dimethylamino)but-2-ynoyl]-N-(3-ethynylphenyl)-5,6,7,8-tetrahydropyrido [4′,3′:4,5]thieno[2,3-d]pyrimidin-4-amine]
6 | < 200 | 200 to 1000 | 200 to 1000 | CN(C)CC#CC(=O)N1CCc2c(sc3ncnc(Nc4ccc(F)c(Cl)c4)c23)C1 [Example 134, N-(3-chloro-4-fluorophenyl)-7-[4-(dimethylamino)but-2-ynoyl]-5,6,7,8-tetrahydropyrido [4′,3′:4,5]thieno[2,3-d]pyrimidin-4-amine]
7 | < 200 | < 200 | 200 to 1000 | CN(C)CC#CC(=O)N1CCc2c(sc3ncnc(Nc4ccc(OCc5ccccn5)c(Cl)c4)c23)C1 [Example 135, N-[3-chloro-4-(pyridin-2-ylmethoxy)phenyl]-7-[4-(dimethylamino)but-2-ynoyl]-5,6,7,8-tetrahydropyrido [4′,3′:4,5]thieno[2,3-d]pyrimidin-4-amine]
8 | < 200 | 1000 to 10000 | 1000 to 10000 | O=C(C#CCN1CCOCC1)N1CCc2c(sc3ncnc(Nc4ccc(OCc5ccccn5)c(Cl)c4)c23)C1 [Example 136, N-[3-chloro-4-(pyridin-2-ylmethoxy)phenyl]-7-(4-morpholin-4-ylbut-2-ynoyl)-5,6,7,8-tetrahydropyrido [4′,3′:4,5]thieno[2,3-d]pyrimidin-4-amine]
9 | < 200 | 200 to 1000 | 200 to 1000 | O=C(C#CCN1CCOCC1)N1CCc2c(sc3ncnc(Nc4ccc(OCc5cccc(F)c5)c(Cl)c4)c23)C1 [Example 139, N-{3-chloro-4-[(3-fluorobenzyl)oxy]phenyl}-7-(4-morpholin-4-ylbut-2-ynoyl)-5,6,7,8-tetrahydropyrido [4′,3′:4,5]thieno[2,3-d]pyrimidin-4-amine]
10 | < 200 | 200 to 1000 | 200 to 1000 | O=C(C#CCCN1CCCCC1)N1CCc2c(sc3ncnc(Nc4ccc(F)c(Cl)c4)c23)C1 [Example 140, N-(3-chloro-4-fluorophenyl)-7-(5-piperidin-1-ylpent-2-ynoyl)-5,6,7,8-tetrahydropyrido [4′,3′:4,5]thieno[2,3-d]pyrimidin-4-amine]
11 | < 200 | 200 to 1000 | 200 to 1000 | C#Cc1cccc(Nc2ncnc3sc4c(c23)CCN(C(=O)C#CCCN2CCCCC2)C4)c1 [Example 141, N-(3-ethynylphenyl)-7-(5-piperidin-1-ylpent-2-ynoyl)-5,6,7,8-tetrahydropyrido [4′,3′:4,5]thieno[2,3-d]pyrimidin-4-amine]
12 | < 200 | 200 to 1000 | 200 to 1000 | O=C(C#CCCN1CCCCC1)N1CCc2c(sc3ncnc(Nc4ccc(OCc5cccc(F)c5)c(Cl)c4)c23)C1 [Example 142, N-{3-chloro-4-[(3-fluorobenzyl)oxy]phenyl}-7-(5-piperidin-1-ylpent-2-ynoyl)-5,6,7,8-tetrahydropyrido [4′,3′:4,5]thieno[2,3-d]pyrimidin-4-amine]
13 | < 200 | 200 to 1000 | 200 to 1000 | C=C(CN(CC)CC)C(=O)N1CCc2c(sc3ncnc(Nc4ccc(OCc5ccccn5)c(Cl)c4)c23)C1 [Example 143, N-[3-chloro-4-(pyridin-2-ylmethoxy)phenyl]-7-{2-[(diethylamino)methyl]acryloyl}-5,6,7,8-tetrahydropyrido[4′,3′:4,5]thieno[2,3-d]pyrimidin-4-amine]
14 | < 200 | 1000 to 10000 | 1000 to 10000 | C=C(CN1CCOCC1)C(=O)N1CCc2c(sc3ncnc(Nc4ccc(OCc5ccccn5)c(Cl)c4)c23)C1 [Example 144]
15 | 200 to 5000 | 1000 to 10000 | 1000 to 10000 | C=C(CN1CCOCC1)C(=O)N1CCc2c(sc3ncnc(Nc4ccc(F)c(Cl)c4)c23)C1 [Example 145, N-(3-chloro-4-fluorophenyl)-7-[2-(morpholin-4-ylmethyl)acryloyl]-5,6,7,8-tetrahydropyrido [4′,3′:4,5]thieno[2,3-d]pyrimidin-4-amine]
16 | < 200 | 1000 to 10000 | 1000 to 10000 | C=C(CN1CCOCC1)C(=O)N1CCc2c(sc3ncnc(Nc4ccc(OCc5cccc(F)c5)c(Cl)c4)c23)C1 [Example 146, N-{3-chloro-4-[(3-fluorobenzyl)oxy]phenyl}-7-[2-(morpholin-4-ylmethyl)acryloyl]-5,6,7,8-tetrahydropyrido [4′,3′:4,5]thieno[2,3-d]pyrimidin-4-amine]
17 | < 200 | 1000 to 10000 | 200 to 1000 | C=C(CN(CC)CC)C(=O)N1CCc2c(sc3ncnc(Nc4ccc(F)c(Cl)c4)c23)C1 [Example 147, N-(3-chloro-4-fluorophenyl)-7-{2-[(diethylamino)methyl]acryloyl}-5,6,7,8-tetrahydropyrido [4′,3′:4,5]thieno[2,3-d]pyrimidin-4-amine]
18 | < 200 | 1000 to 10000 | 1000 to 10000 | C#Cc1cccc(Nc2ncnc3sc4c(c23)CCN(C(=O)C(=C)CN(CC)CC)C4)c1 [Example 148, 7-{2-[(diethylamino)methyl]acryloyl}-N-(3-ethynylphenyl)-5,6,7,8-tetrahydropyrido [4′,3′:4,5]thieno[2,3-d]pyrimidin-4-amine]
19 | < 200 | 200 to 1000 | 200 to 1000 | C=C(CN(CC)CC)C(=O)N1CCc2c(sc3ncnc(Nc4ccc(OCc5cccc(F)c5)c(Cl)c4)c23)C1 [Example 149, N-{3-chloro-4-[(3-fluorobenzyl)oxy]phenyl}-7-{2-[(diethylamino)methyl]acryloyl}-5,6,7,8-tetrahydropyrido [4′,3′:4,5]thieno[2,3-d]pyrimidin-4-amine]
20 | < 200 | < 200 | < 200 | CN(C)CC/C=C/C(=O)N1CCc2c(sc3ncnc(Nc4ccc(OCc5ccccn5)c(Cl)c4)c23)C1 [Example 150, 1-[4-[3-chloro-4-(pyridin-2-ylmethoxy)-phenylamino]-5,8-dihydro-6H-9-thia-1,3,7-triaza-fluoren-7-yl}-5-dimethylamino-pent-2-en-1-one]
21 | 200 to 5000 | 1000 to 10000 | 1000 to 10000 | O=C(/C=C/CCO)N1CCc2c(sc3ncnc(Nc4ccc(F)c(Cl)c4)c23)C1 [Example 151, (3E)-5-{4-[(3-chloro-4-fluorophenyl)amino]-5,8-dihydropyrido [4′,3′:4,5]thieno[2,3-d]pyrimidin-7(6H)-yl}-5-oxopent-3-en-1-ol]
22 | < 200 | 1000 to 10000 | 1000 to 10000 | O=C(/C=C/CCN1CCCC1)N1CCc2c(sc3ncnc(Nc4ccc(F)c(Cl)c4)c23)C1 [Example 152, N-(3-chloro-4-fluorophenyl)-7-[(2E)-5-pyrrolidin-1-ylpent-2-enoyl]-5,6,7,8-tetrahydropyrido [4′,3′:4,5]thieno[2,3-d]pyrimidin-4-amine]
23 | < 200 | 1000 to 10000 | 1000 to 10000 | CN(C)CC/C=C/C(=O)N1CCc2c(sc3ncnc(Nc4ccc(F)c(Cl)c4)c23)C1 [Example 153]
24 | < 200 | 1000 to 10000 | 1000 to 10000 | O=C(/C=C/CCN1CCCCC1)N1CCc2c(sc3ncnc(Nc4ccc(F)c(Cl)c4)c23)C1 [Example 154, N-(3-chloro-4-fluorophenyl)-7-[(2E)-5-piperidin-1-ylpent-2-enoyl]-5,6,7,8-tetrahydropyrido [4′,3′:4,5]thieno[2,3-d]pyrimidin-4-amine]
25 | < 200 | < 200 | < 200 | CN(C)C/C=C/C(=O)N1CCc2c(sc3ncnc(Nc4cccc(Br)c4)c23)C1 [Example 160, N-(3-bromophenyl)-7-[(2E)-4-(dimethylamino)but-2-enoyl]-5,6,7,8-tetrahydropyrido [4′,3′:4,5]thieno[2,3-d]pyrimidin-4-amine]
26 | < 200 | 200 to 1000 | 200 to 1000 | CN(C)C/C=C/C(=O)N1CCc2c(sc3ncnc(Nc4ccccc4)c23)C1 [Example 161, 7-[(2E)-4-(dimethylamino)but-2-enoyl]-N-phenyl-5,6,7,8-tetrahydropyrido [4′,3′:4,5]thieno[2,3-d]pyrimidin-4-amine]
